Assay results as given in PubChem BioAssay AID623878 (Vanderbilt Specialized Chemistry Center, 2012).
The source made the active and inactive calls.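 Rule for the calls: active = glutamate fold shift at least 2 as enhancer, or at most 0.5 as blocker, actives on both sides; inactive = the rest.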

Biological target: Metabotropic glutamate receptor 2 (Rattus norvegicus) (UniProt P31421)
Assay: rat mGlu2 allosteric modulation, SAR follow-up, selectivity assay for mGlu4 PAM project, cell-based, thallium flux, glutamate fold shift (AID 623878)
Settings: rat mGlu2 cells, at 10 µM

Metabotropic glutamate receptor 2 (Rattus norvegicus), sequence (P31421 whole entry, looked up): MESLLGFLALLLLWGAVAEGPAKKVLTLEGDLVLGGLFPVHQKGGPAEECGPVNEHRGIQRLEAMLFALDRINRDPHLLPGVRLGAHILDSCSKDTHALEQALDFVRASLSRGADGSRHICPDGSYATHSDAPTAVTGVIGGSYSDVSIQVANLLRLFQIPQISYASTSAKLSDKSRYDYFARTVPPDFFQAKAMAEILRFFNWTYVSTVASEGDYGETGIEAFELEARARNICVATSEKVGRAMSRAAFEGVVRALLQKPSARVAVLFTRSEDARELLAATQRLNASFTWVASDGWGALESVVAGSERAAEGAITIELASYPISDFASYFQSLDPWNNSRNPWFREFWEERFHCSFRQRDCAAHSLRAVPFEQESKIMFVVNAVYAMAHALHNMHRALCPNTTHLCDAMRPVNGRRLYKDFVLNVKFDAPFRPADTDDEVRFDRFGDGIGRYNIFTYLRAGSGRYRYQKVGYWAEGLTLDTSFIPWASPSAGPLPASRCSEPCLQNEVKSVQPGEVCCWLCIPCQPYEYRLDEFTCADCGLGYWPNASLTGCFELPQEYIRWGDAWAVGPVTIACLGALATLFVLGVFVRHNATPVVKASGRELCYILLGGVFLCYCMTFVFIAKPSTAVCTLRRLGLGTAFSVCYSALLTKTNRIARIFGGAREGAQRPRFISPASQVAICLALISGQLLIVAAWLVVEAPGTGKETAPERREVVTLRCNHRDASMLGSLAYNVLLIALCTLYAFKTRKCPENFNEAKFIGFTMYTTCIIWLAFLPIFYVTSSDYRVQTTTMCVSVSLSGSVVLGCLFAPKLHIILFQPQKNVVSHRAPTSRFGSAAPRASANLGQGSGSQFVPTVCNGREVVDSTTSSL

fold shift: 0.98 (inactive)
Structure (SMILES): O=C(Nc1cccc(Cl)c1)c1ccccn1
